Assay results: patent US7345065B2, “Methods and compositions for alleviating pain” (Allergan, Inc., priority 2002, dated 2008)
Entries after “also recorded” stand apart in the source; their conditions may differ.

Key:
[1] = test system: sulprostone-sensitized α-2A knockout mice; assay: Sulprostone sensitized pain (allodynia), α-2A knockout mice; format: in vivo, mouse
Experimental: (§1) In brief, mice were divided into groups of 5-6 animals. Control mice were administered 5 ul DMSO while treated animals were injected with 5 ul DMSO containing various doses of the indicated agent. After intrathecal injection, each mouse was placed in an individual 13×8.5×13 cm Plexiglass enclosure with wood chips on the floor for observation. Allodynia was assessed once every five minutes over a 50 minute time period, with response recorded eight times in the 15 to 50 minute time frame. Allodynia was assessed by light stroking of the flank of the mice with a small paintbrush and ranked as follows: 0, no response; 1, mild squeaking with attempts to move away from the stroking probe; and 2, vigorous squeaking evoked by the stroking probe, biting at the probe and strong efforts to escape. The eight scores for each animal were added together, and the mean for the group determined to give an average total score.

Chung model rats = assay: Chung rat nerve ligation model, tactile allodynia reversal (Von Frey); format: in vivo; details: for long-term pain alleviation after extended dosing: gabapentin 3 mg/kg oral TID three days, amitriptyline 0.1, brimonidine 0.04, Compound 1 0.1 mg/kg/hour minipump seven days; for analgesia when co-administered with Compound 13 at 0.2 mg/kg/day: osmotic minipump; for analgesia, agonist given alone: peripheral (intraperitoneal) administration, clonidine 100 μg/kg, Compound 3 1 to 1000 μg/kg; for analgesia, agonist given alone / analgesia when co-administered with 0.3 μg/kg Compound 13: Compound 2 100 μg/kg; for analgesia when co-administered with 0.3 μg/kg Compound 13: intraperitoneal, clonidine 30 μg/kg; for Peak allodynia reversal (dose): intraperitoneal injection, dose (3-300 μg/kg); for allodynia reversal, enantiomers versus parent racemate: intraperitoneal administration, Chung model rats
Experimental: The Chung rat nerve ligation model is a well accepted model of peripheral neuropathic pain. In the Chung model, partial ligation of left spinal nerves L-5 and L-6 produces a long-lasting hypersensitivity to light touch on the affected left foot. The hypersensitivity is similar to pain experienced by humans with the neuropathic condition of causalgia (Kim and Chung, Pain 50:355-363 (1992)).
Chung rat surgeries of about 20 minutes duration were performed essentially as follows. Male Sprague-Dawley rats weighing 100 to 120 grams were anesthetized with isofluorane. After shaving and preparing the surgical site with betadine, an incision was made from thoracic vertebra XIII down toward the sacrum, and muscle separated from spinal vertebra (left side) at the L4-S2 levels. The L6 vertebra were located, and the transverse process carefully removed with a small rongeur to visually identify the L4-L6 spinal nerves. L5 and L6 spinal nerves were isolated and tightly ligated with 6-0 silk thread; the wound was sutured after complete hemostasis was confirmed. A small amount of antibiotic ointment was applied to the incised area before transferring the animals to a plastic recovery cage under a regulated heat-temperature lamp. Animals were not treated with any topical or local anesthetics post-operatively.
Assessment of pain in Chung model rats was performed by applying a light tactile stimulus (Von Frey hair) to the affected surgical paw as follows. A 50% pain threshold was established by applying the Von Frey hair in an up-and-down manner to the plantar surface of the surgical paw with just enough force to bend them. A positive response was recorded if the paw was withdrawn sharply. The 50% paw withdrawal threshold was determined using the method of Dixon et al., Ann. Rev. Pharmacol. Toxicol. 20:441-462 (1980). The post-drug threshold was compared to the pre-drug threshold, and the precent reversal of tactile sensitivity calculated based on a normal threshold of 15.1 grams. The results were expressed as % allodynia reversal, reflecting the percentage reversal of pain threshold relative to a normal rat (100%).
Chung surgeries were performed, and pain assessed as described above. Drugs administered via osmotic minipump were delivered as follows. ALZET (Cupertino, Calif.) minipumps (Model #1007D) were implanted subcutaneously on the rats' back between the shoulder blades. Pumps were filled with test solution prior to surgery, which was performed with aseptic procedures and sterilized surgical instruments. After anesthetization with isoflorane and midline incision between the shoulder blades through the muscle, a subcutaneous pocket was exposed. The minipump was inserted into the exposed pocket, before stapling the wounds closed and allowing animals to recover under a warming light.
ALZET osmotic minipumps (model 1007D) hold a total volume of 100 μl and delivered drug at the set rat of 0.5 μl per hour the indicated time period. Drugs were administered at the indicated rate, typically 100 μg/hr/kg, dissolved in 50% DMSO, with the concentration of drug in the pump varied depending on animal weight. […]

[2] = test system: sulprostone-sensitized wild type mice; assay: Sulprostone sensitized pain (allodynia), wild type mice; format: in vivo, mouse
Experimental: Non-specific α-adrenergic agonists were assayed in α-2A receptor deficient (“knockout”) mice (Hein et al., supra, 1999) using a mouse model of sulprostone sensitized pain in which allodynia is evoked by intrathecal administration of a selective prostaglandin E2 receptor agonist to conscious mice essentially as described in Minami et al., Pain 57:217-223 (1994). In this model, the pain response to stroking the flank with a paint brush is scored eight times over a 35 minute period starting 15 minutes following spinal administration of sulprostone and intrathecal or intraperitoneal administration of drug or control vehicle. Sulprostone elicits a “pain” score of 12-13 on a 16-point scale.
as §1, with “Assays for allodynia in wild type and α-2A knockout mice were performed essentially according to the method of Yaksh and Harty, J. Pharmacology Exp. Ther. 244: 501-507 (1998). In” for “In”

Male Sprague-Dawley rats = assay: Sedative effects in rats (total activity, digicom analyzer chamber); format: in vivo, rat
Experimental: (§2) Sedative effects were analyzed by assessing exploratory behavior in a darkened chamber as follows. Mice were weighed, and test compound administered by intrathecal injection in a volume of 5 μl or by intraperitoneal injection in 1 ml/kg volume at the indicated dose. At predetermined time points corresponding with analgesia measurements 5 to 30 minutes following the injection, the animal's activity was determined automatically by placing the mouse in a digicom analyzer chamber (Omnitech Electronic; Columbus, Ohio). The digicom analyzer chamber contains photocell beams criss-crossing the box that are broken as the animal moves around; the chamber was modified for mice by raising the level of the floor. Computer analysis of total animal movement proceeded over a 5-minute time period. Any given animal was used at most twice for this protocol, as learned behavior can affect the data. All animals received at least two weeks rest between studies.
Male Sprague-Dawley rats that were not subject to surgery were used for assessment of sedative effects. Rats were weighed and compound administered by intravenous or intraperitoneal injection or given orally at the indicated dose. At a predetermined time point 5 to 30 minutes following injection, the animal's activity was determined automatically by placing the rat in a digicom analyzer chamber (Omnitech Electronic). Total activity was analyzed as described above.

[3] = test system: α-2B heterozygous (−/+) and homozygous (−/−) knockout mice; assay: Sulprostone sensitized pain (allodynia), α-2B knockout mice; format: in vivo, mouse; details: intraperitoneal; heterozygous and homozygous α-2B knockout; clonidine 500 ug/kg, Compound 3 100 ug/kg
mice = assay: Sedative effects in mice (exploratory activity, digicom analyzer chamber); format: in vivo, mouse; details: intraperitoneal, wild type mice; clonidine 500 ug/kg, Compound 3 100 ug/kg
Experimental: as §2

[4] = intraperitoneal, α-2A knockout mice (Compound 1 30 μg/kg; Compound 2 and PAC 100 μg/kg)
[5] = intrathecal injection (Compound 1: 1 μg), α-2A knockout mice
[6] = intraperitoneal injection, wild type mice (Compound 1 30 μg/kg; Compound 2 100 μg/kg)
[7] = intrathecal injection (Compound 1: 1 μg), wild type mice
[8] = subcutaneous osmotic minipump 0.1 mg/kg/hour, seven days
[9] = rauwolscine 0.3 μg/kg i.p., Compound 8 by osmotic minipump

## Cc1c(N=C2NCCN2)ccc2c1NCCO2 [Compound 1]
[1]; [4]
  analgesia: significant analgesia without sedation
[1]; [5]
  analgesia: did not produce analgesia
Chung model rats
  long-term pain alleviation after extended dosing: the allodynia returned completely prior to or following cessation of treatment
Chung model rats; Chung rats
  analgesia when co-administered with Compound 13 at 0.2 mg/kg/day: greater analgesia was observed during the dosing period, and this analgesic effect continued after completion of drug administration
  analgesia, agonist given alone: neither compound was significantly analgesic at non-sedating doses
[2]; [6]
  analgesia: failed to produce analgesia separable from sedation
[2]; [7]
  analgesia: significant analgesia separable from sedation

## CC1=CCCC1Cc1c[nH]c(=S)[nH]1 (stereo not drawn) [Compound 2]
[1]; [4]
  analgesia: fully analgesic
Chung model rats; Chung rats
  analgesia when co-administered with 0.3 μg/kg Compound 13: significant analgesia
  analgesia, agonist given alone: not analgesic
[2]; [6]
  analgesia: not analgesic
Male Sprague-Dawley rats; 100 μg/kg Compound 2 co-administered with 0.3 μg/kg Compound 13
  sedative effects: no significant sedative effects

## Clc1cccc(CNC2=NCCS2)c1Cl [Compound 5]
Chung model rats
  Peak allodynia reversal (dose): 77% +/− 8.3%

## Fc1c(Cl)cccc1CNC1=NCCO1 [Compound 6]
Chung model rats
  Peak allodynia reversal (dose): 92% +/− 5.2%

## Cc1cccc(CNC(=S)NCCO)c1F [Compound 7]
Chung model rats
  Peak allodynia reversal (dose): 60% +/− 8.0%

## CCC1=CC(Cc2c[nH]cn2)CCC1 (stereo not drawn) [Compound 9]
Chung model rats; [8]
  allodynia alleviated during the period of drug treatment: 60-80%
  persistence of analgesic effects after treatment: continued for over a month after treatment was concluded

## O=C1c2ccccc2CCC1Cc1c[nH]c(=S)[nH]1 (stereo not drawn) [Compound 10]
Chung model rats
  allodynia reversal, enantiomers versus parent racemate: allodynia reversal was obtained; also recorded: as effective as parent racemic mixture in relieving pain

## O=c1[nH]cc(C[C@H]2CCc3cc(F)ccc32)[nH]1 [Compound 12]
Chung model rats
  allodynia reversal, enantiomers versus parent racemate: at least as effective as the parent compound in reducing allodynia at all doses tested

## Fc1ccc(Br)c(CNC2=NCCO2)c1 [Compound 14]
Chung model rats
  Peak allodynia reversal (dose): 77% +/− 6.2%

## Nc1cc(Cl)c(N=C2NCCN2)c(Cl)c1 [PAC, para-amino clonidine, reference compound]
[1]; [4]
  analgesia: analgesic
Chung model rats; Chung rats
  analgesia, agonist given alone: neither compound was significantly analgesic at non-sedating doses

## CN(C)CCC=C1c2ccccc2CCc2ccccc21 [amitriptyline, reference compound]
Chung model rats
  long-term pain alleviation after extended dosing: the allodynia returned completely prior to or following cessation of treatment

## Brc1c(NC2=NCCN2)ccc2nccnc12 [brimonidine]
[3]
  analgesic effect in α-2B knockout mice: analgesic
[1]; [4]
  analgesia: significant analgesia without sedation
[1]; [5]
  analgesia: did not produce analgesia
Chung model rats
  long-term pain alleviation after extended dosing: the allodynia returned completely prior to or following cessation of treatment
Chung model rats; Chung rats
  analgesia when co-administered with Compound 13 at 0.2 mg/kg/day: greater analgesia was observed during the dosing period, and this analgesic effect continued after completion of drug administration
[2]; [6]
  analgesia: failed to produce analgesia separable from sedation
[2]; [7]
  analgesia: significant analgesia separable from sedation

## Clc1cccc(Cl)c1N=C1NCCN1 [clonidine, reference compound]
[3]
  analgesic effect in α-2B knockout mice: alleviated the analgesia in both heterozygous and homozygous α-2B knockout strains
[1]; [4]
  analgesia: significant analgesia without sedation
[1]; [5]
  analgesia: did not produce analgesia
Chung model rats; Chung rats
  analgesia when co-administered with 0.3 μg/kg Compound 13: dramatic allodynia reversal
Chung model rats; intrathecal injection, Chung rats
  analgesia: significant analgesia separable from sedation
[2]; [6]
  analgesia: failed to produce analgesia separable from sedation
[2]; intraperitoneal, wild type mice, clonidine 500 ug/kg, Compound 3 100 ug/kg
  sulprostone-induced tactile allodynia: alleviated sulprostone-induced tactile allodynia
[2]; [7]
  analgesia: significant analgesia separable from sedation
Male Sprague-Dawley rats; clonidine 30 μg/kg intraperitoneal
  sedation (activity): reduces activity
Male Sprague-Dawley rats; clonidine 100 μg/kg intraperitoneal
  sedation: extremely sedating
mice
  concomitant sedation: produced concomitant sedation

## NCC1(CC(=O)O)CCCCC1 [gabapentin, reference compound]
Chung model rats
  long-term pain alleviation after extended dosing: the allodynia returned completely prior to or following cessation of treatment

## COC(=O)[C@H]1[C@H]2C[C@H]3c4[nH]c5ccccc5c4CCN3C[C@H]2CC[C@@H]1O [rauwolscine, reference compound]
[1]; rauwolscine 0.3 μg/kg intraperitoneal, α-2A knockout mice
  effect on the analgesic effect of PAC (100 μg/kg i.p.): blocked
Chung model rats; [9]
  inhibition of the analgesic activity of Compound 8, fourth day of treatment: not on the fourth day
  inhibition of the analgesic activity of Compound 8, third day of treatment: inhibited the analgesic activity of Compound 8 when injected on the third day
